{
  "source": "paper PMC6153520",
  "about": "“Proteasome inhibition and mechanism of resistance to a synthetic, library-based hexapeptide” (Investigational New Drugs, 2018)",
  "key": {"[1]": {"system": "THP1/BTZ200", "assay": "Growth inhibition assay (72 h, trypan blue)", "format": "cell-based, human", "conditions": "relative to IC50 in THP1/WT", "protocol": "(§1) Human monocytic/macrophage THP1 cells (ATTC, Manassas, USA) were cultured in RPMI-1640 medium supplemented with 5% fetal calf serum, 20 mM HEPES, 2 mM glutamine and 100 μg/ml penicillin/ streptomycin at 5% CO2 and 37 °C. Cell cultures were seeded at a density of 3 × 10^5 cells/ml and refreshed twice weekly. […] Some specific experiments also included THP1/BTZ100 cells that were cultured in the absence of BTZ for 6 months (further designated as THP1/BTZ (−100) cells). Mouse thymoma EL4 and human multiple myeloma H929 cells were cultured in RPMI-1640 medium supplemented with 8% fetal calf serum and 100 μg/ml penicillin/streptomycin at 5% CO2 and 37 °C.\n(§2) Evaluation of drug sensitivity was carried out as described before. Cells were seeded at an initial density of 1.25 × 10^5 cells/ml in individual wells of a 24-well plate containing up to 50 μl of drug solutions. Inhibition of cell growth was determined after 72 h of incubation at 37 °C by determining the number of viable cells […] using trypan blue exclusion. The drug concentration required to inhibit cell growth by 50% compared to untreated controls was defined as the IC50."}, "[2]": {"system": "bortezomib-resistant cells (THP1/BTZ200)", "assay": "Western blot, accumulation of ubiquitinated proteins", "format": "cell-based, human", "conditions": "24 h, same concentrations as in THP1/WT", "protocol": "(§3) Western blot analysis to determine protein levels of (i) β1, β2 and β5 proteasome subunits and (ii) the accumulation of ubiquitinated proteins after treatment with 4A6 was performed essentially as described previously. Cells were harvested in the mid-log phase of growth and washed 3 times with ice-cold buffered saline pH 7.4. Total cell lysates of 5 × 10^6 cells were prepared by resuspension in 500 μl lysis buffer containing: 50 mM Tris-HCl (pH 7.6), 5 mM dithiotreitol, 20 μl PIC (Protease Inhibitor Cocktail; 1 tablet/ml H2O), 20% glycerol and 0.5% NP-40. The suspension was sonicated (MSE sonicator, amplitude 7, for 3 × 5 s with 20 s time intervals at 4 °C) and centrifuged in an Eppendorf micro centrifuge (5 min, 12,000 rpm, 4 °C). Protein content of the supernatant was determined by the Bio-Rad protein assay. 20–30 μg of total cell lysates were fractionated on a 10% polyacrylamide gel containing SDS and transferred onto a PVDF membrane. The membranes were pre-incubated overnight at 4 °C in blocking buffer (5% Bio-Rad Blocker in TBS-T; 10 mM Tris-HCl, pH 8.0, 0.15 M NaCl, 0.1% Tween-20) to prevent non-specific antibody binding. After blocking, the membranes were incubated for 1 h at room temperature with primary antibodies for proteasome subunit β1 (1:1000, PW8140), β2 (1:1000, PW8145) and β5 (1:1000, PW8895) or ubiquitin (1:1000, Santa-Cruz, SC-8017). An antibody to α-tubulin was used (1:1000, Santa Cruz, sc-8035) to check and normalize for any loading differences. After 3 washing steps with TBS-T, the membranes were incubated for 1 h with HRP-labelled donkey-anti-rabbit (1:6000, Amersham, UK) or goat-anti-mouse (1:6000, Dako, Glostrup, Denmark) as secondary antibody. Detection of antibody binding was followed by chemoluminescence using Supersignal (Pierce Biotechnology, Rockford, USA) according to the manufacturers’ instructions. […] The signal intensity was determined densitometrically using Quantity One software (Bio-Rad) and was expressed relative to the intensity of the α-tubulin signal."}, "[3]": {"system": "THP1/WT cells", "assay": "Western blot, accumulation of ubiquitinated proteins", "format": "cell-based, human", "conditions": "24 h exposure", "protocol": "as §3"}, "[4]": {"target": "T1, proteasome purified from bovine liver (Bos taurus, UniProt Q32KL2)", "T1 construct": "Proteasome was purified from bovine liver as described previously; from tissue; host or cells: bovine liver", "assay": "4A6 cleavage assay (MALDI-TOF)", "format": "biochemical", "conditions": "1 μg proteasome, 1 μg 4A6, pH 8.5, 45 °C, 16 h", "protocol": "Proteasome was purified from bovine liver as described previously. For digestion assays, 1 μg proteasome was incubated with 1 μg 4A6 in 50 μl of 50 mM Tris-HCl buffer pH 8.5 at 45 °C for 16 h. Subsequently, the reaction mixture was lyophilized and peptides purified using reversed-phase ZipTip®C18 tips (Millipore). The purified peptide mixture was mixed in a 1:1 ratio with 10 mg/ml 2,5-dihydroxybenzoic acid (DHB, Bruker Daltonik) matrix solution in 0.1% TFA and spotted onto a MALDI (matrix assisted laser desorption/ ionization) target plate. MALDI-TOF analysis was performed on an Autoflex, linear MALDI-TOF-MS (Bruker Daltonik GmbH, Bremen, Germany). Spectra were analyzed with flexAnalysis software (Bruker Daltonik)."}, "[5]": {"system": "proteasome β5 subunit", "assay": "Western blot, proteasome subunit expression", "format": "cell-based, human", "conditions": "10 μM 4A6, 24 h; THP1/WT, THP1/BTZ100 and THP1/BTZ (−100); densitometry", "protocol": "as §3"}, "[6]": {"system": "proteasome β1 subunit", "assay": "Western blot, proteasome subunit expression", "format": "cell-based, human", "conditions": "0.1–10 μM, 24 h; THP1/WT, THP1/BTZ100, THP1/BTZ (−100)", "protocol": "as §3"}, "[7]": {"system": "proteasome β2 subunit", "assay": "Western blot, proteasome subunit expression", "format": "cell-based, human", "conditions": "0.1–10 μM, 24 h; THP1/WT, THP1/BTZ100, THP1/BTZ (−100)", "protocol": "as §3"}, "[8]": {"system": "bortezomib-resistant THP1 cell lines", "assay": "Growth inhibition assay, cross-resistance", "format": "cell-based, human", "conditions": "relative to THP1/WT; 72 h growth inhibition", "protocol": "as §1, §2"}, "[9]": {"target": "T2, proteasome β5 subunit (Mus musculus, UniProt O55234)", "T2 construct": "Activity probing of constitutive and immunoproteasome β-subunits in EL4 cells; endogenous in cells; host or cells: EL4 mouse thymoma cells", "assay": "Proteasome affinity labelling in EL4 cells", "format": "cell-based", "conditions": "EL4 cells pre-exposed for 2–24 h", "protocol": "Proteasome activity profiling assays were performed as described using a close analog of the BodipyFL probe. Briefly, mouse EL4 thymoma cells were incubated at 37 °C for 2 or 24 h with increasing concentrations of 4A6, followed by a 1 h chase with 500 nM probe. […] Cells were harvested and lysed for 30 min in NP40 lysis buffer (50 mM Tris, pH 7.4, 150 mM NaCl, 1% NP40) at 4°C. The Bradford assay was used to measure protein content. Proteins were denatured by boiling in reducing sample buffer and analyzed by 12% SDS-PAGE using NuPAGE pre-cast gels (Invitrogen). Gels were then scanned for fluorescence emission using a ProXPRESS 2D Proteomic imaging system (Perkin Elmer). Images were analyzed using Totallab analysis software (Nonlinear Dynamics, Newcastle upon Tyne, UK). Sypro staining served as a loading control."}, "[10]": {"system": "Multidrug Resistance-associated Protein 1 (MRP1/ABCC1)", "design": "method as in PMID 11289130", "conditions": "ref [32]; cited from earlier work"}, "[11]": {"system": "THP1 cells", "assay": "Growth inhibition with or without Ruthenium Red", "format": "cell-based, human", "conditions": "72 h, with or without 25 μM Ruthenium Red", "protocol": "as §2"}},
  "note": "Where a SMILES comes first, the peptide text is derived from it. [ ]: non-standard residue; d: D form. The star is where a group is joined. His(τ-Bzl) = N[C@@H](Cc1cn(Cc2ccccc2)cn1)C(=O)O; Nle = CCCC[C@H](N)C(=O)O; NHBn = c1ccc(CN*)cc1; Bn = c1ccc(C*)cc1; OtBu = CC(C)(C)O*; tBu = CC(C)(C)*",
  "data": [
    {"smiles": "CCCC[C@H](NC(=O)[C@@H](NC(=O)[C@H](Cc1cn(Cc2ccccc2)cn1)NC(=O)[C@@H](NC(C)=O)[C@@H](C)OC(C)(C)C)[C@@H](C)OCc1ccccc1)C(=O)N[C@@H](CCC(=O)OC(C)(C)C)C(=O)NCC(=O)NCc1ccccc1", "note": "[4A6, Ac-Thr(tBu)-His(Bzl)-Thr(Bzl)-Nle-Glu(OtBu)-Gly-Bza] (Ac-T(tBu)[His(τ-Bzl)]T(Bn)[Nle]E(OtBu)G-NHBn)", "values": [
      {"measurement": "[Resistance Factor] THP1/BTZ200", "setting": "[1]", "value": 287},
      {"measurement": "accumulation of ubiquitinated proteins", "setting": "[2]", "value": "did not provoke any accumulation of ubiquitinated proteins"},
      {"measurement": "accumulation of ubiquitinated proteins", "setting": "[3]", "value": "marked accumulation of ubiquitinated proteins"},
      {"measurement": "proteolytic cleavage by purified proteasomes", "setting": "[4]", "value": "predominantly cleaved at the P4-P5 position"},
      {"measurement": "increase in β5 subunit induction vs drug-free controls", "setting": "[5]", "value": "3–5 fold"},
      {"measurement": "effect on expression of the β1 proteasome subunit", "setting": "[6]", "value": "No significant effects"},
      {"measurement": "effect on expression of the β2 proteasome subunit", "setting": "[7]", "value": "No significant effects"},
      {"measurement": "cross-resistance of bortezomib-resistant cell lines", "setting": "[8]", "value": "up to 287 fold"},
      {"measurement": "concentration giving complete inhibition of the β5 subunit", "setting": "[9]", "value": "> 5", "unit": "µM"},
      {"measurement": "ability to reverse efflux pump MDR (ABCC1)", "setting": "[10]", "value": "lacked the ability to reverse efflux pump MDR"},
      {"measurement": "substrate of MDR efflux transporter ABCC1", "setting": "[10]", "value": "substrate"},
      {"measurement": "effect of Ruthenium Red on growth inhibitory activity (protection)", "setting": "[11]", "value": "no effect"}
    ]}
  ]
}
